Columns and labels:
Assay in all cases: relative viability (nuclei count vs DMSO), 5 days (fraction); higher = more cells survive
[1] = compound: O[C@H]1CC[C@H](Nc2ncc3nc(Nc4c(F)cc(F)cc4F)n([C@H]4CCOC4)c3n2)CC1 [Tanzisertib] + CS(=O)(=O)CCNCc1ccc(-c2ccc3ncnc(Nc4ccc(OCc5cccc(F)c5)c(Cl)c4)c3c2)o1 [Lapatinib] (partner 2 µM)
In short: (§1)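 Nuclei were stained with Hoechst during a one-step fixation (final 0.05% Triton X-100, 1% formaldehyde, 1 ug/ml Hoechst) carried out 5 days after dosing, then counted on 4× images. The cells, lung cancer lines in 1536-well plates, had been dosed by pin tool the day after seeding with one drug alone or a fixed anchor-drug dose plus five library-drug doses (not always all listed) in √10 steps. Relative viability is the nuclei count in treated wells divided by that in vehicle wells, and each value is the median of duplicate plates.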

[2] = compound: C[C@@H](N)c1ccc(C(=O)Nc2ccnc3[nH]ccc23)cc1 + CC(C)C[C@H](NC(=O)[C@H](Cc1ccccc1)NC(=O)c1cnccn1)B(O)O [Bortezomib] (partner 0.002 µM)
In short: as §1

[3] = compound: O[C@H]1CC[C@H](Nc2ncc3nc(Nc4c(F)cc(F)cc4F)n([C@H]4CCOC4)c3n2)CC1 [Tanzisertib] + C[C@@H](Oc1cc(-c2cnn(C3CCNCC3)c2)cnc1N)c1c(Cl)ccc(F)c1Cl [Crizotinib] (partner 1 µM)
In short: as §1

[4] = compound: O[C@H]1CC[C@H](Nc2ncc3nc(Nc4c(F)cc(F)cc4F)n([C@H]4CCOC4)c3n2)CC1 [Tanzisertib] + COc1cc2c(Oc3ccc(NC(=O)C4(C(=O)Nc5ccc(F)cc5)CC4)cc3F)ccnc2cc1OCCCN1CCOCC1 [Foretinib] (partner 0.25 µM)
In short: as §1

| Cell Line | relative viability ([1]; first compound 0.08 µM) | relative viability ([1]; first compound 0.253 µM) | relative viability ([1]; first compound 0.8 µM) | relative viability ([1]; first compound 2.53 µM) | relative viability ([1]; first compound 8 µM) | relative viability ([2]; first compound 0.04 µM) | relative viability ([2]; first compound 0.1265 µM) | relative viability ([2]; first compound 0.4 µM) | relative viability ([2]; first compound 1.265 µM) | relative viability ([2]; first compound 4 µM) | relative viability ([3]; first compound 0.08 µM) | relative viability ([3]; first compound 0.253 µM) | relative viability ([3]; first compound 0.8 µM) | relative viability ([3]; first compound 2.53 µM) | relative viability ([3]; first compound 8 µM) | relative viability ([4]; first compound 0.08 µM) | relative viability ([4]; first compound 0.253 µM) | relative viability ([4]; first compound 0.8 µM) | relative viability ([4]; first compound 2.53 µM) | relative viability ([4]; first compound 8 µM) |
| --- | --- | --- | --- | --- | --- | --- | --- | --- | --- | --- | --- | --- | --- | --- | --- | --- | --- | --- | --- | --- |
| SK-LU-1 | 1.1 | 0.869 | 0.855 | 0.994 | 0.816 | 0.886 | 1.54 | 1.01 | 0.753 | 0.743 | 0.994 | 0.776 | 1.03 | 1.05 | 0.834 | 0.837 | 0.755 | 0.807 | 0.815 | 0.781 |
| LOU-NH91 | 0.782 | 0.775 | 0.64 | 0.771 | 0.716 | 0.504 | 0.56 | 0.515 | 0.468 | 0.429 | 0.716 | 0.734 | 0.723 | 0.464 | 0.593 | 0.914 | 0.946 | 0.903 | 0.87 | 0.639 |
| LXF-289 | 0.99 | 0.883 | 0.983 | 0.926 | 0.977 | 1.01 | 0.976 | 1.07 | 1.05 | 0.952 | 0.935 | 0.734 | 0.836 | 0.815 | 0.854 | 1.02 | 1.01 | 1.06 | 0.989 | 1.03 |
| NCI-H1299 | 1.01 | 0.982 | 0.989 | 1.05 | 1.11 | 1.02 | 0.998 | 0.958 | 0.938 | 0.827 | 0.983 | 0.972 | 0.968 | 0.984 | 1.05 | 1.08 | 1.1 | 1.09 | 1.15 | 1.23 |
| HARA | 0.889 | 0.809 | 0.81 | 0.797 | 0.771 | 1.24 | 1.26 | 1.22 | 1.17 | 1.14 | 1.12 | 1.05 | 1.06 | 1.06 | 1.08 | 0.817 | 0.925 | 0.86 | 0.889 | 0.74 |
| LU99A | 1.1 | 0.934 | 0.934 | 1.11 | 1.2 | 0.947 | 1.23 | 1.23 | 0.88 | 0.78 | 0.557 | 0.567 | 0.513 | 0.638 | 0.586 | 0.828 | 0.81 | 0.798 | 0.765 | 0.837 |
| 201T | 1.04 | 1.02 | 0.997 | 1.02 | 1.07 | 1.09 | 1.08 | 1.11 | 1.17 | 1.25 | 1.04 | 1.04 | 1.02 | 1.05 | 0.996 | 1.2 | 1.08 | 1.12 | 1.11 | 0.978 |
| HCC-827 | 0.19 | 0.186 | 0.201 | 0.24 | 0.183 | 0.97 | 1.03 | 1.1 | 1.05 | 0.972 | 0.903 | 0.964 | 0.931 | 0.892 | 0.559 | 1.13 | 1.1 | 1.07 | 0.814 | 0.389 |
| NCI-H1666 | 0.669 | 0.67 | 0.901 | 0.622 | 0.725 | 0.991 | 1.12 | 1.04 | 0.984 | 0.932 | 0.902 | 0.934 | 1.09 | 1.03 | 1.09 | 0.957 | 0.96 | 0.978 | 1.01 | 0.976 |
| NCI-H1915 | 0.994 | 1 | 0.897 | 1.02 | 0.947 | 0.988 | 1.01 | 1.01 |  | 0.823 | 0.929 | 0.91 | 0.862 | 0.904 | 0.856 | 1.12 | 1.1 | 1.11 | 1.11 | 1.16 |
| NCI-H2009 | 1.12 | 0.983 | 0.847 | 1.05 | 0.296 | 0.89 | 0.928 | 0.969 | 0.354 | 0.827 | 1.04 | 1.13 | 1.02 | 1.12 | 1.06 | 1.21 | 1.19 | 1.24 | 1.27 | 1.03 |
| ChaGo-K-1 |  |  |  |  |  | 1.01 | 1.07 | 1 |  | 0.734 | 1.21 | 1.13 | 1.07 | 1.09 | 1.02 | 0.969 | 0.982 | 0.861 | 0.94 | 0.891 |
| COR-L 105 | 0.379 | 0.355 | 0.353 | 0.332 | 0.275 | 0.826 | 0.732 | 0.791 | 0.469 | 0.649 | 0.81 | 0.986 | 0.822 | 0.855 | 0.622 | 0.99 | 1.03 | 1.32 | 1.27 | 0.719 |

— the supplement of paper PMC10307832
